Measured values taken from ChEMBL document CHEMBL1201862, “PubChem BioAssay data set” (2004).
The source made the active and inactive calls.

Key:
[1] = viability loss in Vero cells – cytotoxicity control for Vif-APOBEC3G degradation inhibitor project, dose response (AID 1117358); type: functional; details: Vero
Estrogen receptor beta = Estrogen receptor beta (Homo sapiens, UniProt Q92731);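 also: recombinant ER-beta bound to coactivator SRC1 peptide in presence of estradiol agonist; inhibitors block coactivator peptide binding and lower the FRET signal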
[2] = Dd2 parasite growth inhibition in erythrocytes – SYBR Green, dry powder samples, set 9, dose response (AID 1159568); type: functional, cell-based
[3] = BioA aminotransferase inhibition, coupled fluorescent readout – biochemical, coupled fluorescence displacement, 20-point, dry powder, dose response (AID 743357); type: functional
[4] = viability loss in HepG2 liver cells – cell-based, luminescence, dry powder, set 9, cytotoxicity control, dose response (AID 743358); type: functional
[5] = Potency on glucagon-like peptide 1 release, dose-response in NCI-H716 cell line, half maximal inhibitory concentration (AID 1117344); type: functional, cell-based
[6] = IC50 of insulin release inhibition, rat insulinoma INS-1E line, 5 mM glucose, cell-based (AID 1117331); type: functional
cells = type: functional, cell-based; details: INS-1E
[7] = microbe, parasite or virus in culture; type: functional; details: Mycobacterium tuberculosis
[8] = glucagon-like peptide-1 release potency in STC-1, concentration-response, half-maximal inhibitory concentration in the STC-1 line (AID 1117345); type: functional, cell-based
Bcl-2-related protein A1 [9] = molecular target: T1, Bcl-2-related protein A1 (Mus musculus, UniProt Q07440); experiment: displacement of Bid BH3 peptide from Bfl-1 – biochemical, fluorescence polarization, FITC-Bid, mouse, primary screen (AID 432)
T1 sequence (Q07440 whole entry): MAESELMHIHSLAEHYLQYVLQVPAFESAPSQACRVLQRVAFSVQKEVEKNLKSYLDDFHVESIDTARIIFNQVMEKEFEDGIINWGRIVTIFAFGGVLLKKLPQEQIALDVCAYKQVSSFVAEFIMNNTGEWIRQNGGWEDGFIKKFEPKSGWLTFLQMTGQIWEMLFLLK

Bcl-2-related protein A1 [10] = molecular target: T1, Bcl-2-related protein A1; experiment: small-molecule antagonists of Bfl-1/BH3 interaction – biochemical, TR-FRET, mouse Bfl-1, confirmation (AID 621);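 also: TR-FRET binding of GST-Bfl-1 to FITC-labelled Bid peptide via terbium antibody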
[11] = molecular target: Intestinal-type alkaline phosphatase (Homo sapiens, UniProt P09923); experiment: inhibition of human intestinal alkaline phosphatase – biochemical, dose response (AID 488876); type: functional
Cytochrome P450 2D6 = Cytochrome P450 2D6 (Homo sapiens, UniProt P10635);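 also: CYP2D6 member of a cytochrome P450 panel assay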
[12] = molecular target: Lysine-specific demethylase 4C (Homo sapiens, UniProt Q9H3R0); experiment: inhibition of JMJD2C H3K9me3 demethylation – biochemical, DELFIA europium, cherry-picked samples, dose response (AID 488835); type: functional
[13] = HCT116 cell viability decrease, GSK3B pretreatment – CellTiter-Glo, IC50, dose response (AID 1117339); type: functional; details: HCT-116
[14] = Reduced DLD-1 viability, concentration-response, CellTiter-Glo luminescence (AID 1117352); type: functional
[15] = RKO cell viability reduction, dose response, CellTiter-Glo luminescence (AID 1117322); type: functional
[16] = molecular target: Intestinal-type alkaline phosphatase (Mus musculus, UniProt P24822); experiment: PubChem AID 488785; type: functional
[17] = cytotoxicity toward HCT116 cells – cell-based, CellTiter-Glo luminescence, IC50, dose response (AID 1117332); type: functional; details: HCT-116
[18] = molecular target: T2, Alkaline phosphatase, tissue-nonspecific isozyme (Homo sapiens, UniProt P05186); experiment: TNAP enzyme inhibition by screening hits, dose response, selectivity assay for mouse IAP inhibitor project, biochemical, human TNAP, uHTS hits (AID 488906); type: functional
T2 sequence (P05186 whole entry): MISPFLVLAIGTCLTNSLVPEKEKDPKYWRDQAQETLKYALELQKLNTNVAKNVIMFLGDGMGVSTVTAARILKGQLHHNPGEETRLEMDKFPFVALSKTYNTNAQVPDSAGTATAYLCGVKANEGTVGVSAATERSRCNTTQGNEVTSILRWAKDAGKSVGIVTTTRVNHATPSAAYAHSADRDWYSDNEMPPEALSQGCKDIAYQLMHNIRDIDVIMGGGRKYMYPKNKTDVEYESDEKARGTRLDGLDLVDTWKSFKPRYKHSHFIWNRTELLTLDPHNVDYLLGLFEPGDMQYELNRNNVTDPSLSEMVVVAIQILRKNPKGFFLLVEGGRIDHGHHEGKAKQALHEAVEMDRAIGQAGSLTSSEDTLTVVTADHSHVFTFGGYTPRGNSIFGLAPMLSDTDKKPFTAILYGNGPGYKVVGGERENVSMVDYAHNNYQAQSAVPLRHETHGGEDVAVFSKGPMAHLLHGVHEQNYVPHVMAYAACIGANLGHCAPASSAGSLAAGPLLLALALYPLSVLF

[19] = cytotoxicity toward Colo320 cells – cell-based, CellTiter-Glo luminescence, IC50, dose response (AID 1117334); type: functional; details: COLO 320
[20] = cytotoxicity toward HT-29 cells – cell-based, CellTiter-Glo luminescence, IC50, dose response (AID 1117330); type: functional
Cytochrome P450 2C19 = Cytochrome P450 2C19 (Homo sapiens, UniProt P33261); experiment: Cytochrome panel assay with activity outcomes. Panel member name: p450-cyp2c19 Compounds with AC50 equal or less than 10 uM are considered active; type: functional; details: read-out: AC50
[21] = CellTiter-Glo luminescence survival assay, SW480 colon tumor line, concentration-response curve, half-maximal inhibitory concentration (AID 1117338); type: functional
[22] = SNU-C1 cell viability reduction, dose response, CellTiter-Glo luminescence (AID 1117323); type: functional, cell-based

Chain of Cytochrome P450 2D6 (P10635 whole entry): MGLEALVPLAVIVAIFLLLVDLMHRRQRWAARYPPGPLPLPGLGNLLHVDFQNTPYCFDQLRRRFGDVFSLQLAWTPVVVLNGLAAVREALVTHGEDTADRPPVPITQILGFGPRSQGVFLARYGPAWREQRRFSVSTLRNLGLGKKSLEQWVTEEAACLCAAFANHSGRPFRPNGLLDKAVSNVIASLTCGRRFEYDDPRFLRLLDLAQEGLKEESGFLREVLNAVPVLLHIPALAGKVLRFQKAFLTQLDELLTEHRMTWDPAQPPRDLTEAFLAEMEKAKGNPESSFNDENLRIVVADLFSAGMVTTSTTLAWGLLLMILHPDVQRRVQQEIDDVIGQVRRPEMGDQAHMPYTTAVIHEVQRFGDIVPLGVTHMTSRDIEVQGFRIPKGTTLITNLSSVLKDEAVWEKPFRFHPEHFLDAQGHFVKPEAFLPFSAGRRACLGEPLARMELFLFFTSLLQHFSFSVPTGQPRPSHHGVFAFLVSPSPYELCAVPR
Chain of Estrogen receptor beta (Q92731 whole entry): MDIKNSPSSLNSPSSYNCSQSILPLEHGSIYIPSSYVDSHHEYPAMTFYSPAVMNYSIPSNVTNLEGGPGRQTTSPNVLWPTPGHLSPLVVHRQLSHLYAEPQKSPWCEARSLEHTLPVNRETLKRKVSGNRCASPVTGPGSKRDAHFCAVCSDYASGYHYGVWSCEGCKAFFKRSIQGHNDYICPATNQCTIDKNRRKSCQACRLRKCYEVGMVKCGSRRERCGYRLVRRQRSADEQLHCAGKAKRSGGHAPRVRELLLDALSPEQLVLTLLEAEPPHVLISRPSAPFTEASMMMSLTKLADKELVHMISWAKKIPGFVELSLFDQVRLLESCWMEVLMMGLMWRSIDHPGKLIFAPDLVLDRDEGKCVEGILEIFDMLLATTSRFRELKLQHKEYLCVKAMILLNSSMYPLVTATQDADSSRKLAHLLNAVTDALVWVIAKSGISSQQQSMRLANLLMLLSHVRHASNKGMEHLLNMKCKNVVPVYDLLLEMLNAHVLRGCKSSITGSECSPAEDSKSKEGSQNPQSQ
Chain of Lysine-specific demethylase 4C (Q9H3R0 whole entry): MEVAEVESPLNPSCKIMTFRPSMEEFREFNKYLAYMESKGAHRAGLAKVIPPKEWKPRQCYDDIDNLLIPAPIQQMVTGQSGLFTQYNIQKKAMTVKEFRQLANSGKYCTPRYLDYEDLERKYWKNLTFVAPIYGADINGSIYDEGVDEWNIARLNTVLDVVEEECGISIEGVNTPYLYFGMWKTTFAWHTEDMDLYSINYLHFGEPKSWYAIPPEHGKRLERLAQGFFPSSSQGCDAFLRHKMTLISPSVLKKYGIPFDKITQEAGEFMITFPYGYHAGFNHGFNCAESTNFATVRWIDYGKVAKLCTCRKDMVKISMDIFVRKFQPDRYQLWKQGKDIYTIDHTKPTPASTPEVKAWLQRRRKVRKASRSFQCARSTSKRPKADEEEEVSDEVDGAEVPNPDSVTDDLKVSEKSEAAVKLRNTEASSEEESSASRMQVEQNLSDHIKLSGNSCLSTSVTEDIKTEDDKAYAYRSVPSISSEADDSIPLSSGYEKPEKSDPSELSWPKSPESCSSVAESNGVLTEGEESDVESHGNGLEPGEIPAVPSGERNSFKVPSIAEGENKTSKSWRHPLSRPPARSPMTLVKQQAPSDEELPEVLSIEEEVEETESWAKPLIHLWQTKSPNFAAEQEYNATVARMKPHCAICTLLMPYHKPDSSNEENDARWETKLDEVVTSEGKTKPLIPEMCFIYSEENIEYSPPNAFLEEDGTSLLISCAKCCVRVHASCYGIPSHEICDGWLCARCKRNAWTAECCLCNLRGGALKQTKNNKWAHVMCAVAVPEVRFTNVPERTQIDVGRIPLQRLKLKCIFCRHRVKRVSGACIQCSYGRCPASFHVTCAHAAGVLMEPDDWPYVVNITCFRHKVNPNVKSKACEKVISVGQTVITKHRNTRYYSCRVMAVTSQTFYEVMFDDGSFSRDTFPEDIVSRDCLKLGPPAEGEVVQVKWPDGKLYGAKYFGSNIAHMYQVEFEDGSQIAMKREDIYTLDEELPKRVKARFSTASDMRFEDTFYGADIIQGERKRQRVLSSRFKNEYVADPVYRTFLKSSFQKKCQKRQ
Chain of Cytochrome P450 2C19 (P33261 whole entry): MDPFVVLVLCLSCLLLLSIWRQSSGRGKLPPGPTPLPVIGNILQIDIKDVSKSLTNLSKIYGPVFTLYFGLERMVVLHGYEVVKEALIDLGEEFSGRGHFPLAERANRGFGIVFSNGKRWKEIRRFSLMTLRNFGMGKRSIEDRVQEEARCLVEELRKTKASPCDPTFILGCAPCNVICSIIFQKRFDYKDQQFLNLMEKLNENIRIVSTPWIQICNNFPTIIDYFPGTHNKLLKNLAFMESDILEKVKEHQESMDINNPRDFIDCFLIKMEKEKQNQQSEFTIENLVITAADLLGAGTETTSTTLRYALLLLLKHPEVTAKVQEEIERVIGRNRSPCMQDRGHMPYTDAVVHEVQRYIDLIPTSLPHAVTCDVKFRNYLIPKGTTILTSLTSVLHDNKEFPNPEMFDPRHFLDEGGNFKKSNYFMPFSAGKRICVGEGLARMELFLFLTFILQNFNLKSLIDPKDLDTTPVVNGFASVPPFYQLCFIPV
Chain of Intestinal-type alkaline phosphatase (Mus musculus, UniProt P24822) (P24822 whole entry): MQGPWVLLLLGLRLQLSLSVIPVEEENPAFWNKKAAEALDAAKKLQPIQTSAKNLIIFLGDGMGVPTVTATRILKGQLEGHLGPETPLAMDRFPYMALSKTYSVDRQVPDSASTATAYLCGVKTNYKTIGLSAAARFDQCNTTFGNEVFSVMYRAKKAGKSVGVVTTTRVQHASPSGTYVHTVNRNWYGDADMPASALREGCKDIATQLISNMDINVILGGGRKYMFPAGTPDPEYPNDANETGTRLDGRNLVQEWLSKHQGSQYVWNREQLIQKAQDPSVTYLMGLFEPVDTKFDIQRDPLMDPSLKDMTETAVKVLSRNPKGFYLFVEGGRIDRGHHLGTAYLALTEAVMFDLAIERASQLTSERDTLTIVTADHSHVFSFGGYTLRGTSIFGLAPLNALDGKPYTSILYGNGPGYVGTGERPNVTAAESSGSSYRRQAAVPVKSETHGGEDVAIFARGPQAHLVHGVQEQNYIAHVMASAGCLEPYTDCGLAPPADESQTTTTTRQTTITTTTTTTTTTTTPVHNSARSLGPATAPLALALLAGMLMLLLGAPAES
Chain of Intestinal-type alkaline phosphatase (Homo sapiens, UniProt P09923) (P09923 whole entry): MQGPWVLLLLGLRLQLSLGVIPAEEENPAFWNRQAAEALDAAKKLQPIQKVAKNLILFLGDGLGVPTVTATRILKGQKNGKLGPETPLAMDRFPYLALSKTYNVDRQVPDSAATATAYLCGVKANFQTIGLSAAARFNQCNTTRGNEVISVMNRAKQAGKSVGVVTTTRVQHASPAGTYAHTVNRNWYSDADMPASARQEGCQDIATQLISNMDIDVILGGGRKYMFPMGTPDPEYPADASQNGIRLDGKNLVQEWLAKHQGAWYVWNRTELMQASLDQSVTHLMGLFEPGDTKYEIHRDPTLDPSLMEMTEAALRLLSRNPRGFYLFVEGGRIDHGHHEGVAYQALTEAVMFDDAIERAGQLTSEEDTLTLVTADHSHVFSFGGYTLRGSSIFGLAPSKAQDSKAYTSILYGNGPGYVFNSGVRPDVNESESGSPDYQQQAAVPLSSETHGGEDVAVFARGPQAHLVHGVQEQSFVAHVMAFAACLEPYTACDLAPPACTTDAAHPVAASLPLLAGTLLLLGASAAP

Q: For `O=C(NCCc1ccc(Cl)cc1)C1CCN(C(=O)c2sccc2-n2cccc2)CC1`, which CC50 [1] is on record?
A: > 40 µM (active)

Q: Which IC50 (Estrogen receptor beta) does the source give for `CC(=N)/C(C#N)=C(/O)CSc1nnc(Nc2cccc(C)c2C)s1` here?
A: 12.3 µM (active)

Q: With `COc1ccc2c3c([nH]c2c1)[C@H](CO)N(Cc1ccccc1)CC31CN(C(=O)c2ccccn2)C1` as the compound, how does the AC50 [2] read?
A: 6.79 µM (active)

Q: Which results are given for `CC(C)NC(=O)N1CC[C@@H]2[C@@H](CO)N(C)c3ccc(-c4cccc(F)c4)cc3[C@@H]21`?
A: AC50 [3]: 11.8 µM (active); AC50 [4]: > 52 µM (inactive)

Q: Which results are given for `Clc1ccc2c(c1)CCc1cccnc1C2=C1CCNCC1` [DESLORATADINE]?
A: IC50 [5]: > 40 µM (inactive); IC50 [6]: 7.11 µM (inactive); IC50 (cells): > 33.3 µM (inactive); CC50 [7]: 32.9 µM (active); IC50 [8]: > 40 µM (inactive)

Q: Which IC50 (Bcl-2-related protein A1 [9]) does the source give for `CC(C)[C@H]1C(=O)N2CCC[C@H]2[C@]2(O)O[C@](NC(=O)[C@@H]3C=C4c5cccc6[nH]cc(c56)C[C@H]4N(C)C3)(C(C)C)C(=O)N12` [ERGOCORNINE] here?
A: > 100 µM (not active)

Q: And the IC50 (Bcl-2-related protein A1 [10])?
A: > 100 µM (not active)

Q: Which IC50 [11] does the source give for `N#CC(C#N)=Cc1ccc(O)c(O)c1` [TYRPHOSTIN 23] here?
A: > 100 µM (inactive)

Q: What about the AC50 (Cytochrome P450 2D6) of the same compound?
A: 20 µM (inconclusive)

Q: And the AC50 [12]?
A: 10.8 µM (active)

Q: And the IC50 [13]?
A: > 20 µM (inactive)

Q: And the IC50 [14]?
A: > 20 µM (inactive)

Q: And the IC50 [15]?
A: 3.78 µM (active)

Q: What about the IC50 [16] of the same compound?
A: 4.22 µM (active)

Q: And the IC50 [17]?
A: > 20 µM (inactive)

Q: What about the IC50 [18] of the same compound?
A: 9.97 µM (active)

Q: What about the IC50 [19] of the same compound?
A: 6.74 µM (inactive)

Q: And the IC50 [20]?
A: > 20 µM (inactive)

Q: And the AC50 (Cytochrome P450 2C19)?
A: 15.8 µM (inconclusive)

Q: And the IC50 [21]?
A: > 20 µM (inactive)

Q: And the IC50 [22]?
A: > 20 µM (inactive)
